The values below come from US11542298B2, “Hydroxysteroid compounds, their intermediates, process of preparation, composition and uses thereof” (Epirium Bio Inc., priority 2014, dated 2023).

Molecules are shown by their SMILES. Where “and” joins values, the source holds several entries; their conditions need not be identical. Equal entries are not always repeated.

For one assay, the system named is AMP KINASE. Nature of the assay: AMP KINASE phosphorylation, cell-based fluorescent ELISA (BioAssay Systems).
Conditions: not given
The method, then:
The compounds of the present invention were tested for their activity on AMP KINASE. The activity on AMP KINASE was evaluated by quantitative fluorescent immunoenzymatic assay of AMP KINASE phosphorylation status in cultured cells. The 5-AMP-activated protein kinase (AMP KINASE) is a key sensor of intracellular energy balance. AMP KINASE is activated in response to an increase in the AMP/ATP ratio which can be caused by a number of factors such as muscle contraction, starvation, or hypoxia. AMP KINASE is a heterotrimeric protein complex comprising of α—(63 kDa), β—(38 kDa) and γ—(38 kDa) subunits. For each subunit, isoforms have been identified (α1, α2, β1, β2, γ1, γ2, γ3) which theoretically allow the formation of 12 different proteins. The α-subunit contains a serine/threonine kinase domain and the regulatory subunits contain binding sites for AMP and ATP (γ-subunit) and for glycogen (β-subunit). AMP KINASE is activated by phosphorylation on Thr-172 within the catalytic domain. AMP binding results in a 2 to 5-fold increase in AMP KINASE activity compared to the basal level. Binding of AMP to the γ-subunit causes allosteric activation of the kinase and induces a conformational change in the kinase domain that protects AMP KINASE from dephosphorylation of Thr-172.
BioAssay Systems' cell-based ELISA measure phosphorylated AMP KINASE in whole cells and normalizes the signal to the total protein content. The antibody recognizes both α-subunits and, thus, can be used for cells from all tissues (human, mouse, rat). This simple and efficient assay eliminates the need for cell lysate preparation and can be used to study AMP KINASE regulation in short-term and long-term assays. In this assay, cells grown in 96-well plates are fixed and permeabilized in the wells. AMP KINASE phosphorylation (pAMPK) is measured using a fluorescent ELISA followed by total protein measurement in each well.
A few illustrative compounds of the present invention were tested at 10 nM and the AMPkinase activation of the compounds is listed at Table 2: […]
Take `C[C@]12CCC(=O)NC1=CCC1C2[C@@H](O)C[C@]2(C)C(=O)CCC12` (stereo partly drawn) [Compound 1005, (4aR,5S,6aS)5-hydroxy-4a,6a-dimethyl-4,4a,4b,5,6,6a,9,9a,9b,- 10-decahydro-1H-indeno[5,4-f]-quinoline-2,7(3H,8H)-dione]: the “AMPKinase Activation at 10 nM” value is 1.85.

Take `CC(=O)C1CCC2C3CC=C4NC(=O)CC[C@]4(C)C3[C@@](C)(O)C[C@]12C` (stereo partly drawn) [Compound 1008, (4aR,5S,6aS)-7-acetyl-4,4a,4b,5,- 6,6a,7,8,9,9a,9b,10-dodecahydro-5-hydroxy-4a,5,6a-trimethyl-1H-indeno[5,4-f]quinolin-2(3H)-one]: the “AMPKinase Activation at 10 nM” value is 1.97.

Consider `C[C@]12C=CC(=O)C=C1CCC1C2[C@@H](O)C[C@@]2(C)C1CC[C@@H]2C(=O)O` (stereo partly drawn) [Compound 1013, (10R,11S,13S,17S)-11-hydroxy-10,13-dimethyl-3-oxo-6,7,8,9,- 10,11,12,13,14,15,16,17-dodeca-hydro-3H-cyclopenta[a]-phenan-threne-17-carboxylic acid], for which the “AMPKinase Activation at 10 nM” value is 1.79.

As for `CN(C)C(=O)[C@H]1CCC2C3CCC4=CC(=O)C=C[C@]4(C)C3[C@@H](O)C[C@@]21C` (stereo partly drawn) [Compound 1014, (10R,11S,13S,17S)-11-hydroxy-N,N,10,13-tetramethyl-3-oxo-6,7,8,9,10,11,12,13,14,15,16,17-dodecahydro-3H-cyclopenta[a]-phenanthrene-17-carboxamide], the “AMPKinase Activation at 10 nM” value stood at 1.80.

On to `CC(=O)[C@H]1CCC2C3CCC4=CC(=O)C=C[C@]4(C)C3[C@@H](O)C[C@@]21C` (stereo partly drawn) [Compound 1015, (10R,11S,13S,17S)-17-acetyl-11-hydroxy-10,13-dimethyl-6,7,8,9,- 10,11,12,13,14,13,16,17-dodeca-hydro-3H-cyclopenta[a]-phenan-thren-3-one], for which the “AMPKinase Activation at 10 nM” value turned out to be 2.23.

`CC(O)[C@H]1CCC2C3CCC4=CC(=O)C=C[C@]4(C)C3[C@@H](O)C[C@@]21C` (stereo partly drawn) [Compound 1016, (10R,11S,13S,17S)-11-hydroxy-17-((R)-1-hydroxyethyl)-10,13-dimethyl-6,7,8,9,10,11,12,13,- 14,15,16,17-dodecahydro-3H-cyclopenta[a]phenanthren-3-one]: the “AMPKinase Activation at 10 nM” value is listed as 2.38.

Take `C[C@]12CCC(=O)NC1=CCC1C2[C@@H](O)C[C@@]2(C)C1CCC21OCCO1` (stereo partly drawn) [Compound 1017, (4a′R,5′S,6a′S)-5′-hydroxy-4a′,6a′-dimethyl-3′,4′,4a′,4b′,5′,6′,6a′,8′,- 9′,9a′,9b′,10′-dodecahydrospiro-[[1,3]dioxolane-2,7′-indeno[5,4-f]-quinolin]-2′(1′H)-one]: the “AMPKinase Activation at 10 nM” value is on record as 2.08.

As to `C[C@]12CCC(=O)NC1=CCC1C2[C@](C)(O)C[C@]2(C)C(=O)CCC12` (stereo partly drawn) [Compound 1018, (4aR,5R,6aS)-5-hydroxy-4a,5,6a-trimethyl-4,4a,4b,5,6,6a,9,9a,9b,- 10-decahydro-1H-indeno[5,4-f]-quinoline-2,7(3H,8H)-dione], the “AMPKinase Activation at 10 nM” value came out at 2.19.

Turning to `C[C@]12C[C@H](O)C3C(CC=C4NC(=O)CC[C@@]43C)C1CCC2O` (stereo partly drawn) [Compound 1019, (4aR,5S,6aS)-5,7-dihydroxy-4a,6a-dimethyl-4,4a,4b,5,6,6a,- 7,8,9,9a,9b,10-dodecahydro-1H-indeno[5,4-f]quinolin-2(3H)-one], the “AMPKinase Activation at 10 nM” value was 2.23.

Turning to `C[C@]12CCC(=O)NC1=CCC1C2[C@@H](O)C[C@]2(C)/C(=N\O)CCC12` (stereo partly drawn) [Compound 1021, (4aR,5S,6aS,Z)-5-hydroxy-7-(hydroxyimino)-4a,6a-dimethyl-4,4a,4b,5,6,6a,7,8,9,9a,9b,10-dodecahydro-1H-indeno[5,4-f]-quinolin-2(3H)-one], the “AMPKinase Activation at 10 nM” value is listed as 2.23.

As to `CN1C(=O)CC[C@@]2(C)C1=CCC1C3CCC(O)[C@@]3(C)C[C@H](O)C12` (stereo partly drawn) [Compound 1022, (4aR,5S,6aS)-5,7-dihydroxy-1,4a,6a-trimethyl-4,4a,4b,5,6,6a,- 7,8,9,9a,9b,10-dodecahydro-1H-indeno[5,4-f]quinolin-2(3H)-one], the “AMPKinase Activation at 10 nM” value was found to be 2.87.

As for `C[C@]12CCC(=O)NC1CCC1C3CCC(O)[C@@]3(C)C[C@H](O)C12` (stereo partly drawn) [Compound 1023, (4aR,5S,6aS)-5,7-dihydroxy-4a,6a-dimethyltetradecahydro-1H-indeno[5,4-f]quinolin-2(3H)-one], the “AMPKinase Activation at 10 nM” value is given as 2.46.

With `CC1([C@H]2CCC3C4CC=C5NC(=O)CC[C@]5(C)C4[C@@H](O)C[C@@]32C)OCCO1` (stereo partly drawn) [Compound 1025, (4aR,5S,6aS,7S)-5-hydroxy-4a,6a-dimethyl-7-(2-methyl-1,3-dioxolan-2-yl)-4,4a,4b,5,6,6a,- 7,8,9,9a,9b,10-dodecahydro-1H-indeno[5,4-f]quinolin-2(3H)-one], the “AMPKinase Activation at 10 nM” value is 2.11.

For the molecule `CC1([C@H]2CCC3C4CC=C5NC(=O)CC[C@]5(C)C4[C@@](C)(O)C[C@@]32C)OCCO1` (stereo partly drawn) [Compound 1026, (4aR,5S,6aS,7S)-5-hydxoxy-4a,5,6a-trimethyl-7-(2-methyl-1,3-dioxolan-2-yl)-4,4a,4b,5,6,6a,- 7,8,9,9a,9b,10-dodecahydro-1H-indeno[5,4-f]quinolin-2(3H)-one], the “AMPKinase Activation at 10 nM” value is 1.69 and 2.17.

Regarding `C[C@]12CCC(=O)NC1=CCC1C2[C@@H](O)C[C@@]2(C)C1CC[C@@H]2C(=O)O` (stereo partly drawn) [Compound 1027, (4aR,5S,6aS,7S)-5-hydroxy-4a,6a-dimethyl-2-oxo-2,3,4,4a,4b,5,6,- 6a,7,8,9,9a,9b,10-tetradecahydro-1H-indeno[5,4-f]quinoline-7-carboxylic acid], the “AMPKinase Activation at 10 nM” value is on record as 1.85.

Regarding `COc1ccc2c(c1)CCC1C2[C@@H](O)C[C@]2(C)C(C(C)O)CCC12` (stereo partly drawn) [Compound 1030, (11S,13S)-17-(1-hydroxyethyl)-3-methoxy-13-methyl-7,8,9,11,12,- 13,14,15,16,17-decahydro-6H-cyclopenta[a]phenanthren-11-ol], the “AMPKinase Activation at 10 nM” value was determined as 1.51.

For `Cc1ccc(O)c2c1C1C(CC2)C2CC[C@H](C(=O)O)[C@@]2(C)C[C@@H]1O` (stereo partly drawn) [Compound 1035, (11S,13S,17S)-4,11-dihydroxy-1,13-diinethyl-7,8,9,11,12,13,- 14,15,16,17-decahydro-6H-cyclopenta[a]phenanthrene-17-carboxylic acid], the “AMPKinase Activation at 10 nM” value amounted to 1.76.

Regarding `CC(C)(O)[C@H]1CCC2C3CC=C4NC(=O)CC[C@]4(C)C3[C@@H](O)C[C@@]21C` (stereo partly drawn) [Compound 1038, (4aR,5S,6aS,7S)-5-hydroxy-7-(2-hydroxypropan-2-yl)-4a,6a-dimethyl-4,4a,4b,5,6,6a,7,8,9,- 9a,9b,10-dodecahydro-1H-indeno-[5,4-f]quinolin-2(3H)-one], the “AMPKinase Activation at 10 nM” value was 1.70.

The next assay concerns AMP KINASE. As to the kind of experiment: AMP KINASE activation, cell based ELISA in Hepatoma (Hep 2) liver cells. The conditions noted are these: 0.1 nM, 30 m, over baseline of 100 (DMSO control). As to the method: AMP KINASE activation potential of the compounds was evaluated using cell based ELISA·Hepatoma (Hep 2) liver cells were maintained in a T 75 culture flask-containing 25 mM DMEM+10% fetal calf serum. The cells were maintained in a T 75 culture flask-containing medium (DMEM+10% fetal calf serum). On reaching a confluence of 70 to 80%, the cells were seeded in a 96 well plate at a density of 40,000 cells per well in 25 mM DMEM+10% FCS medium. The plates were then incubated at 37° C. with 5% CO2 for 24 hours. Various concentrations of drugs were prepared in DMSO and diluted to required concentration with the medium and incubated at 37° C. with 5% CO2 for 30 min and 1 h for Epicatechin analogs and 11-BHP analogs respectively. Metformin was used as positive control·Cells were fixed with 4% formaldehyde for 30 minutes at room temperature and washed three times with PBS containing 0.1% Triton X-100. Endogenous peroxidase was quenched with 1% H2O2 in PBS-T (0.1% Tween 20) for 30 minutes and washed three times in PBS-T. Cells were blocked with 1% BSA in PBS-T for 1 hour. The cells were incubated with 1:1000 dilution primary antibody (Phospho-AMPKα ([…]) Rabbit mAb, Cell Signaling in PBS-T containing 5% BSA at 4° C. overnight. The cells were then washed three times with PBS-T for 5 minutes and incubated with 1:1000 dilution secondary antibody (Anti-rabbit IgG, HRP-linked Antibody, Cell Signaling) in PBS-T with 1% BSA for 1 hour at RT·Cells were washed three times with PBS-T for 5 minutes The cells were incubated with 100 μl TMB substrate solution for 30 minutes and the reaction was stopped with 100 μl of 2N H2SO4. Then the plate was read at 450 nm using ELISA plate reader and absorbance recorded. % activity was calculated using DMSO control as 100%.
As for `CC(=O)C1CC[C@H]2[C@@H]3CCC4=CC(=O)CC[C@]4(C)[C@H]3[C@@H](O)C[C@]12C` (stereo partly drawn) [Compound 1040, (8S,9S,10R,11S,13S,14S)-17-acetyl-11-hydroxy-10,13-dimethyl-6,7,8,9,10,11,12,13,- 14,15,16,17-dodecahydro-1H-cyclopenta[a]phenanthren-3(2H)-one], the “% pAMPK” value is 118%.

The same assay, now with this note: 2 mM, 30 m, over baseline of 100 (DMSO control).
Regarding `CN(C)C(=N)N=C(N)N` [Metformin, reference compound], the “% pAMPK” value amounted to 121%.
